7 compounds from patent US9365853B2, “Matriptase inhibitors and uses thereof against orthomyxoviridae infections” (priority 2011, dated 2016) can be followed below.

For orientation: Ki means a dissociation constant, usually derived from enzyme kinetics or from competition with a known ligand. Low readings indicate a stronger hold on the target, high ones a looser hold on the target. Broadly, the inhibition is the relative decrease from the control value, in per cent.

For test [1], the target named is T1, matriptase (Homo sapiens (Human), UniProt Q9Y5Y6). Description: siRNA knock-down of matriptase protein expression in Calu-3 cells (Western blot, densitometry). It is filed as cell-based. As to conditions: Calu-3, 50 nmol siRNA, 1.5 μl Lipofectamine RNAiMAX, 48 h after transfection. On the procedure:
Using RNA interference technology, siRNAs specific to human matriptase were targeted in these cells. Calu-3 cells were transfected with two different siRNAs (50 nmol, S1: s13520 (Ambion) Silencer® Select siRNAs gene symbol ST14; S2: EHU012511 (Sigma-Aldrich) MISSION® esiRNA targeting human ST14 (esiRNA1)) targeted toward matriptase mRNA (target sequence of EHU012511: […] […] […] […] (SEQ ID NO:5)) using various concentrations of Lipofectamine RNAiMAX™ (0.5 to 1.5 μl). Scrambled siRNAs were used as controls. 48 h after transfection, cellular protein extracts were prepared. Extracts were subjected to polyacrylamide gel electrophoresis (SDS-PAGE) and transferred to nitrocellulose membranes. Membranes were probed for matriptase protein expression using a rabbit anti-human matriptase-specific antibody. Membranes were blocked using non-fat dry milk in Tris-Buffered Saline (TBS) with Tween™ 20. Membranes were then labeled with a rabbit anti-human matriptase-specific antibody (Bethyl Laboratories Inc.).
(In western blotting, separated proteins are transferred to a membrane and probed.)

Test [2] deals with T1, matriptase. Description: Ki determination for matriptase (Morrison tight-binding or mixed model, fluorogenic Boc-Gln-Ala-Arg-AMC). It is filed as biochemical. To be noted: for reduced potency (lower inhibition) compared to compound 1: matriptase Ki relative to compound 1.
For test [3], the system named is influenza A/Puerto Rico/8/34. It is filed as cell-based, influenza A/Puerto Rico/8/34 (H1N1).
In test [4] the target is Recombinant purified human matriptase (amino acids 596-855) (Homo sapiens (Human), UniProt Q9Y5Y6). In words: biochemical. It is filed as biochemical.
In test [5] the test system is influenza A/Puerto Rico/8/34 virus. It is filed as cell-based, influenza A/Puerto Rico/8/34 virus (PR8).
Test [6] shares this test system. It counts as cell-based, influenza A/Puerto Rico/8/34 virus (PR8). The source holds these as a separate data set.
The next test concerns the target furin (Homo sapiens (Human), UniProt P09958). Description: Ki determination, selectivity profile: furin (Boc-Arg-Arg-Val-Arg-AMC). It counts as biochemical. As to conditions: furin (protease #7); NI = no inhibition, 10 μM.
Test [7] deals with T1, matriptase. In words: Matriptase inhibition in cellulo (HEK293 transfected with pcDNA3.1-matriptase, activity in media). It is filed as cell-based. To be noted: HEK293, 24 h incubation, read-out: inhibition of matriptase activity in cultured cells. On the procedure:
Human embryonic kidney cells (HEK293) were transfected with 6 μg of pcDNA3.1™ (Mock) or pcDNA3.1™-matriptase (Matriptase) using Lipofectamine 2000™ reagent (Invitrogen) in 10-cm plates. […] After 24 h incubation, media was incubated with Boc-Gln-Ala-Arg-AMC substrate (50 μM) and fluorescence measured for 20 minutes at 37° C. Enzyme activity was determined in terms of released fluorescence units per minutes per μl of media for each condition.

The target in test [8] is T1, matriptase. In words: Dissociation of enzyme:inhibitor complex by dilution recovery experiments. It counts as biochemical. As to conditions: matriptase 0.5 μM pre-incubated 20 minutes, diluted 1:2000.
Experimental: Dissociation of the enzyme-inhibitor (EI) complex was investigated using dilution recovery experiments. […] Complexes were rapidly (1:2000) diluted in a reaction buffer containing 400 μM of Boc-Gln-Ala-Arg-AMC (˜7 times Km). Activity was continuously recorded for 75 minutes and fluorescence plotted as a function of time.

Like-named read-outs stand apart in the source and are kept apart here. Where a SMILES comes first, the peptide text is derived from it. The star is where a group is joined. X1 = N=C(N)NCCC[C@@H](N*)C(=O)c1nc2ccccc2s1; CH2Cl = ClC*

Chain of Recombinant purified human matriptase (amino acids 596-855) (Q9Y5Y6 596-855 limits assumed): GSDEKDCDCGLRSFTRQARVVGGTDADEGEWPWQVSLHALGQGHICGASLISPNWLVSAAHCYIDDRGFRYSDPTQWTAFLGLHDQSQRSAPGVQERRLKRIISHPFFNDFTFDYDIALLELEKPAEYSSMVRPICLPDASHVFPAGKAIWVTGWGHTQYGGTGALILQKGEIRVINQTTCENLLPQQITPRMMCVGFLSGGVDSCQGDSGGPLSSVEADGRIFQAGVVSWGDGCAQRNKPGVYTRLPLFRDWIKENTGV
Chain of furin (P09958 108-794 limits assumed): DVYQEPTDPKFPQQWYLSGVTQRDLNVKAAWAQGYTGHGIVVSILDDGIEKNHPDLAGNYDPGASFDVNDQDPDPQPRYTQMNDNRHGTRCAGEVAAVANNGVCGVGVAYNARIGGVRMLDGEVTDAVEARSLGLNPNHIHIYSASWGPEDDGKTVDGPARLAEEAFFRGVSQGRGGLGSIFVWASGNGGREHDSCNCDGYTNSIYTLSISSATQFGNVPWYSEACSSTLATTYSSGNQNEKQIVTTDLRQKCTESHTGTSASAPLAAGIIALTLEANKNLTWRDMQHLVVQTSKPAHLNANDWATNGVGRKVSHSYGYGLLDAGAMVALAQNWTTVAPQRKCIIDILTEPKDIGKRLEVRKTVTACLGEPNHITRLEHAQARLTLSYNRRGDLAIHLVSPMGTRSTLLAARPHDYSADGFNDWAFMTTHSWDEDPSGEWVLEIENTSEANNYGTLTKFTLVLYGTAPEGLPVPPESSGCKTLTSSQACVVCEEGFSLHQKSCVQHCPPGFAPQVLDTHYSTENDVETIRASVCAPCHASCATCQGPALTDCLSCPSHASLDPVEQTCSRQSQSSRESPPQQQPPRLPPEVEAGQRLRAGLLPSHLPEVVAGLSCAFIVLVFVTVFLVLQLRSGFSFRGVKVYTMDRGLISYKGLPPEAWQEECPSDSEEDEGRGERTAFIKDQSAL

On to `CC(NC(=O)C(CCC(N)=O)NC(=O)C(N)CCCNC(=N)N)C(=O)NC(CCCNC(=N)N)C(O)c1nc2ccccc2s1` (centres unmarked) [Compound 2, 2-(2-amino-5-carbamimidamidopentanamido)-N-(1-{[1-(1,3-benzothiazol-2-yl)-5-carbamimidamido-1-hydroxypentan-2-yl]carbamoyl}ethyl)pentanediamide], for which the matriptase protein expression entry on matriptase [1] is “significantly blocked”.
Consider `CC(=O)NC(CCCNC(=N)N)C(=O)c1nc2ccccc2s1` (centres unmarked) [Compound 6, N-[1-(1,3-benzothiazol-2-yl)-5-carbamimidamido-1-oxopentan-2-yl]acetamide], for which, on matriptase [2], the Ki amounted to 0.457 µM and the “reduced potency (lower inhibition) compared to compound 1” value is “over 30,000 fold”. The mode of inhibition result on matriptase [2] (matriptase) is “mixed mode of inhibition”.
Compound `C[C@H](NC(=O)[C@H](CCC(N)=O)NC(=O)[C@@H](N)CCCNC(=N)N)C(=O)N[C@@H](CCCNC(=N)N)C(O)c1nc2ccccc2s1` (mixture of isomers) [Compound 2, 2-(2-amino-5-carbamimidamidopentanamido)-N-(1-{[1-(1,3-benzothiazol-2-yl)-5-carbamimidamido-1-hydroxypentan-2-yl]carbamoyl}ethyl)pentanediamide] had a Ki on matriptase [2] of 6.1 µM.
For the compound `C[C@H](NC(=O)[C@H](CCC(N)=O)NC(=O)[C@@H](N)CCCNC(=N)N)C(=O)N[C@@H](CCCNC(=N)N)C(=O)c1nc2ccccc2s1` [Compound 1, RQAR-ketobenzothiazole], in test [3], the “block of influenza replication” value is given as “more than 50%”. In addition, the “inhibition of matriptase activity” value in test [4] is on record as “almost completely”. The “influenza replication supported by matriptase” value in [5] (1 μM) and in test [5] (10 μM) was “completely abrogate” throughout. Also, the “effect on influenza replication with trypsin as the activating protease” value in [6] is recorded as “no effect”. Further, the “Ki (nM)” value at furin is “no inhibition”. Besides, at matriptase [7] (1 μM), the inhibition at 1 µM is ~50%. Besides, the inhibition at 10 µM at matriptase [7] (10 μM) was ~100%.
On to `N=C(N)NCCC[C@H](NC(=O)CNC(=O)[C@@H](N)CCC(=O)O)C(=O)CCl` [EGR-CMK, Glu-Gly-Arg chloromethyl ketone] (H-Glu-Gly-Arg-CH2Cl), for which, at matriptase [8], the “dissociation of enzyme:inhibitor complex (reversibility)” value is given as “irreversible inhibition”.
For `C[C@H](NC(=O)[C@H](CCC(N)=O)NC(=O)[C@@H](N)CCCNC(=N)N)C(=O)N[C@@H](CC(=O)O)C(=O)N[C@H](CCCNC(=N)N)C(=O)c1nc2ccccc2s1` [Compound 7] (H-RQAD-X1), at matriptase [2], the “reduced potency (lower inhibition) compared to compound 1” value is on record as 400 fold.
Take `CC(NC(=O)C(CCC(N)=O)NC(=O)C(N)CCCNC(=N)N)C(=O)NC(CCCCN)C(=O)c1nc2ccccc2s1` (centres unmarked) [Compound 3, N-(1-{[6-amino-1-(1,3-benzothiazol-2-yl)-1-oxohexan-2-yl]carbamoyl}ethyl)-2-(2-amino-5-carbamimidamidopentanamido)pentanediamide]: in test [4] (read-out: inhibition of matriptase activity), the inhibition at 1 µM is ~25%. For the same compound, the “decrease of the Ki relative to compound 1” value on matriptase [2] is “about 3 orders of magnitude”.
